System: mTOR
Assay: mTOR expression at RNA level in iFECD (PCR, agarose gel electrophoresis)
Type: cell-based, human
Conditions: 3 pmol mTOR siRNA, FIG. 6
Method: The medium was removed from a culture dish in which iFECDs were being cultured, and the cells were supplemented with 1×PBS (−) that was preheated to 37° C., and were washed. This was repeated twice. The cells were supplemented again with 1×PBS (−) and incubated for 3 minutes at 37° C. (5% CO2). After removing the PBS (−), the cells were supplemented with 0.05% Trypsin-EDTA (Nacalai Tesque, 32778-34) and incubated for 5 minutes at 37° C. (5% CO2). The cells were then suspended in a medium, and collected by centrifugation at 1500 rpm for 3 minutes. DMEM (Nacalai Tesque, 08456-36)+10% FBS (Biowest, S1820-500)+1% P/S (Nacalai Tesque, 26252-94) was used as the medium.
iFECDs were seeded on a 12-well plate at a ratio of 3×10^4 cells per well and cultured for 24 hours at 37° C. (5% CO2) (medium: DMEM+10% FBS+1% P/S). After 24 hours, the medium was removed. Lipofectamine (invitrogen, 92008) and 3 pmol of mTOR siRNA (Ambion, AS026M0L) were added to culture the cells for 24 hours (medium: OptiMEM-I (invitrogen, 31985-088)). The mTOR siRNA that was used has a sense strand set forth in SEQ ID NO: 1 and an antisense strand set forth in SEQ ID NO: 2. After 24 hours, the medium was removed to culture the cells for 72 hours at 37° C. (5% CO2) (medium: DMEM+10% FBS+1% P/S). After 72 hours, the medium was removed. […]

mTOR siRNA: siRNA against mTOR gene (Ambion, AS026M0L); sense strand SEQ ID NO: 1, antisense strand SEQ ID NO: 2 (sense CAUUCGCAUUCAGUCCAUATT; antisense UAUGGACUGAAUGCGAAUGAT; chemistry not given here)
mTOR expression, RNA level (PCR): suppression was found

Reference: patent publication US11433090B2, “mTOR-inhibitor-containing medicine for treating or preventing ophthalmic symptoms, disorders, or diseases, and application thereof” (The Doshisha, priority 2017, dated 2022)
